Converted amounts (≈) assume the structure as drawn. “And” between values parts separate entries of the source, which are not always exact repeats. Identical values can stand only once.
Experiments:
Trypanosoma cruzi [1] = test: (§1) DNDI: Chagas in Vitro; format: functional, Tulahuen C4 (LacZ)
[2] = (§2) DNDI: Cytotoxicity in vitro, against rat skeletal myoblast (L-6) cells; settings: L-6 cells (skeletal myoblasts), IC50
L6 = test: as §2; settings: L-6 cells (skeletal myoblasts)
[3] = system: Trypanosoma brucei rhodesiense; test: DNDI: HAT in Vitro; format: functional, organism-based, ATCC 30027; settings: Trypanosoma brucei, ATCC 30027
Trypanosoma cruzi [4] = test: as §1; format: functional, organism-based, Tulahuen C4 (LacZ)
[5] = DNDI: Lipophilicity (gLogD) at pH 3; settings: buffer, pH 3, logD
[6] = DNDI: Lipophilicity (gLogD) at pH 7.4; settings: buffer, pH 7.4, logD
[7] = DNDI: Solubility in 0.01M HCl at pH 2 determined by nephelometry; settings: 0.01M HCl, pH 2, Kinetic
in vitro [8] = settings: human, microsomes
in vitro [9] = settings: human, microsomes, t (1 / 2)
in vitro [10] = settings: mouse, microsomes
in vitro [11] = settings: mouse, microsomes; remark: listed apart in the source
in vitro [12] = settings: rat, microsomes
in vitro [13] = settings: rat, microsomes; remark: listed apart in the source
Cytochrome P450 3A4 = Cytochrome P450 3A4 (Homo sapiens, UniProt P08684); test: DNDI: Human CYP3A4 inhibition determined using 6b-hydroxylation of testosterone
Sequence of Cytochrome P450 3A4 (P08684 whole entry): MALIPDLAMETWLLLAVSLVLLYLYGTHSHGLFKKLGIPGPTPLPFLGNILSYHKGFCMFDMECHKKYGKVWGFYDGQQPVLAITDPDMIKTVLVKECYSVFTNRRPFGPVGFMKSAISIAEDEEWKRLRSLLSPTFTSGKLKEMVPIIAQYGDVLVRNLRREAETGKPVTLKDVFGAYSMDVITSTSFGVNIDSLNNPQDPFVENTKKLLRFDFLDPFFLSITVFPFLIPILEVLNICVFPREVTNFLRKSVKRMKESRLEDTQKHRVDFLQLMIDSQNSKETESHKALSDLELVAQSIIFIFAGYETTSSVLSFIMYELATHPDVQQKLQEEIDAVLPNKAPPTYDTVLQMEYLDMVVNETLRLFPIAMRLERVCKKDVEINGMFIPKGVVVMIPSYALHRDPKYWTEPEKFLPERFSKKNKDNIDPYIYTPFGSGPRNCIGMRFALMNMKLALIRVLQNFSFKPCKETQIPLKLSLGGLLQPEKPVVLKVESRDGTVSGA

[14] = DNDI: Solubility in phosphate buffer at pH 6.5 determined by nephelometry; settings: phosphate buffer, pH 6.5, Kinetic
in vitro [15] = settings: human, microsomes, EH
[16] = DNDI: Cytotoxicity in vitro, against human lung fibroblast (MRC-5) cells; settings: MRC-5 cells (lung fibroblasts)
Leishmania infantum = test: DNDI: Leish (macro) in Vitro; format: functional, organism-based, MHOM/MA(BE)/67
Trypanosoma cruzi [17] = test: DNDI: Chagas in vivo at 20 mg/kg, 20 days 2x; format: functional, Tulahuen Swiss po
CYP3A4 [18] = molecular target: T1, CYP3A4 (Homo sapiens, UniProt P08684); test: DNDI: Human CYP3A4 inhibition at 10 uM determined using 6b-hydroxylation of testosterone; settings: probe testosterone (6b-hydroxylation)
T1 sequence (P08684 whole entry): as above

CYP3A4 [19] = molecular target: T1, CYP3A4; test: DNDI: Human CYP3A4 inhibition at 1 uM determined using 6b-hydroxylation of testosterone; settings: probe testosterone (6b-hydroxylation)
[20] = Trypanosoma cruzi, Tulahuen C4 (LacZ)

SMILES	IC90 (Trypanosoma cruzi [1])	IC50 [2]	IC50 [3]	IC50 (Trypanosoma cruzi [4])	IC50 (Trypanosoma cruzi [4]; [20])	IC90 (Trypanosoma cruzi [1]; [20])	chromatographic logD [5]	chromatographic logD [6]	solubility kinetic [7]	microsomal CLint (in vitro [8])	half-life (in vitro [9])	IC50 (Cytochrome P450 3A4)	solubility kinetic [14]	hepatic extraction ratio (in vitro [15])	inhibition at 10 µM (CYP3A4 [18])	also measured
CCN(c1ccccc1)S(=O)(=O)c1ccc(Cl)c(NC(=O)CN(C)C2CCN(C)CC2)c1	> 10000 nM	51500 nM	5430 nM													IC50 (L6): 54100 nM
CO/N=C(\C)c1ccc(-n2ccnc2)c(NC(=O)c2ccc(-c3ccccc3)nc2)c1	24.5 nM	> 100000 nM		9 nM	13 nM	29.1 nM	2.5	3.3	> 100 µg/mL	26 µL/min/mg	66 min					microsomal CLint (in vitro [10]): 33 µL/min/mg; half-life (in vitro [11]): 53 min; half-life (in vitro [12]): 36 min; microsomal CLint (in vitro [13]): 48 µL/min/mg
CCOC(COc1ccc2cc(Br)ccc2c1)Cn1ccnc1.O=CO (stereo unspecified)		44200 nM	> 10000 nM		16 nM	59 nM	3.3	4.5	> 100 µg/mL	14 µL/min/mg	120 min	< 250 nM	12.5 µg/mL	0.36		
CCN(CC)S(=O)(=O)c1ccc(-n2ccnc2)c(NC(=O)c2cnc(-c3ccccc3)nc2)c1	23.5 nM and 8.03 nM	> 100000 nM	> 10000 nM	6.5 nM and 0.8 nM			2.7	3.2	50 µg/mL (≈ 105 µM)	166 µL/min/mg	10 min	20000 nM	1.6 µg/mL (≈ 3.36 µM)	0.9		
CCN(c1ccccc1)S(=O)(=O)c1ccc(Cl)c(NC(=O)CNC2CCCN(C)C2)c1.O=CO (stereo unspecified)		45700 nM	910 nM		> 1000 nM	> 1000 nM	-0.12	1.56	101 µg/mL	89 µL/min/mg	19.5 min	16300 nM	94.4 µg/mL	0.815		
O=C(Nc1cc(C(F)(F)F)ccc1-n1ccnc1)c1cnc(-c2ccccc2)nc1		> 100000 nM	> 10000 nM		> 100 nM	> 100 nM										IC50 [16]: > 64000 nM; IC50 (Leishmania infantum; Leishmania infantum, MHOM/MA(BE)/67): > 64000 nM
CN1CCCC(CNCC(O)COc2ccc3cc(Br)ccc3c2)C1 (stereo unspecified)		19000 nM	7120 nM		5560 nM	> 10000 nM										IC50 (Leishmania infantum): 2030 nM and 1700 nM and 540 nM
CCN(Cc1cccnc1)c1cncc(-c2nc3ccccc3s2)c1		31800 nM	> 10000 nM		171 nM	354 nM	1.56	3.67	66.3 µg/mL (≈ 191 µM)	414 µL/min/mg	4.2 min	790 nM	3.52 µg/mL (≈ 10.2 µM)	0.953		
CO/N=C(\C)c1ccc(-n2ccnc2)c(NC(=O)c2cnc(-c3ccccc3)s2)c1	2.77 nM		> 10000 nM	0.9 nM	0.617 nM	3 nM										PCR cure rate (Trypanosoma cruzi [17]): 0%
O=C(Nc1ccccc1-n1ccnc1)c1cnc(-c2ccccc2)nc1		> 100000 nM			63 nM	148 nM	1.3	2.4	> 100 µg/mL	18 µL/min/mg	99 min	> 10000 nM		0.4	27%	
CS(=O)(=O)N(Cc1cnc[nH]1)c1ccc(-c2nc3ccccc3s2)cc1							1.6	2.3	> 100 µg/mL	55 µL/min/mg	32 min	1500 nM		0.68	85%	PCR cure rate (Trypanosoma cruzi [17]): 0%; Parasitemia clearance after immunosuppression (Trypanosoma cruzi [17]): 0%; Parasitemia clearance after treatment (Trypanosoma cruzi [17]): 100%; inhibition at 1 µM (CYP3A4 [19]): 48%
CO/N=C(\C)c1ccc(-n2ccnc2)c(NC(=O)c2cnc(-c3ccccn3)s2)c1	17 nM	68000 nM	> 10000 nM	5.5 nM	2.93 nM	19.4 nM	1.8	2.7	> 100 µg/mL	20 µL/min/mg	85 min		6.3 µg/mL (≈ 15.1 µM)			IC50 (L6): > 100000 nM; microsomal CLint (in vitro [10]): 75 µL/min/mg; half-life (in vitro [11]): 23 min
Cc1ccc(-n2ccnc2)c(NC(=O)c2cnc(-c3ccccc3)nc2)c1		> 100000 nM			23 nM	151 nM	1.6	2.7	> 100 µg/mL	93 µL/min/mg	19 min	> 10000 nM		0.78	49%	inhibition at 1 µM (CYP3A4 [19]): 15%
CCN(Cc1c[nH]cn1)c1ccc(-c2nc3ccccc3s2)cc1		36000 nM			15.3 nM	156 nM	2.1	3.4	> 100 µg/mL	< 7 µL/min/mg	> 250 min	4000 nM	3.1 µg/mL (≈ 9.27 µM)	< 0.23	80%	PCR cure rate (Trypanosoma cruzi [17]): 0%; Parasitemia clearance after immunosuppression (Trypanosoma cruzi [17]): 0%; Parasitemia clearance after treatment (Trypanosoma cruzi [17]): 80%; inhibition at 1 µM (CYP3A4 [19]): 37%
CS(=O)(=O)N(Cc1c[nH]cn1)c1ccc(-c2ccc(F)cc2)cc1F	9.1 nM	> 100000 nM		2.6 nM	2.2 nM	8.4 nM	1.6	2.3	> 100 µg/mL	28 µL/min/mg	61 min	< 1000 nM		0.52	86.1%	inhibition at 1 µM (CYP3A4 [19]): 51.6%
CS(=O)(=O)N(Cc1cnc[nH]1)c1cc(F)cc(-c2nc3ccccc3s2)c1	569 nM and > 1000 nM	66900 nM		65 nM and 74 nM	70 nM	615 nM										IC50 (L6): 63900 nM
CO/N=C(\C)c1ccc(-n2ccnc2)c(NC(=O)c2cncc(-c3ccccc3)n2)c1	639 nM	4160 nM		5.3 nM	6.2 nM	769 nM	2.8	3.7	> 50 µg/mL	117 µL/min/mg	15 min	< 1000 nM	3.1 µg/mL (≈ 7.52 µM)	0.82	91.9%	inhibition at 1 µM (CYP3A4 [19]): 75.9%; IC50 (L6): 6360 nM
Cl.NCC(=O)N(Cc1cccnc1)c1ccc(-c2nc3ccccc3s2)cc1																PCR cure rate (Trypanosoma cruzi [17]): 20%
